Measured values reported in patent US11040031B2, “Pyrazole derivatives as MALT1 inhibitors” (Janssen Pharmaceutica NV, priority 2018, dated 2021).
Read-outs that look alike come from different tables or passages of the source.

Assays:
[1] = target: T1, full-length MALT1 protein (Strep-MALT1(1-824)-His) (Homo sapiens, UniProt Q9UDY8); assay: biochemical;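 note: fluorogenic LRSR-AMC substrate cleavage by MALT1, 50 min compound preincubation then 4 h reaction at RT, 11-point dilution from 30 µM, scaled between enzyme-free and untreated enzyme controls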
T1 sequence (Q9UDY8 1-824): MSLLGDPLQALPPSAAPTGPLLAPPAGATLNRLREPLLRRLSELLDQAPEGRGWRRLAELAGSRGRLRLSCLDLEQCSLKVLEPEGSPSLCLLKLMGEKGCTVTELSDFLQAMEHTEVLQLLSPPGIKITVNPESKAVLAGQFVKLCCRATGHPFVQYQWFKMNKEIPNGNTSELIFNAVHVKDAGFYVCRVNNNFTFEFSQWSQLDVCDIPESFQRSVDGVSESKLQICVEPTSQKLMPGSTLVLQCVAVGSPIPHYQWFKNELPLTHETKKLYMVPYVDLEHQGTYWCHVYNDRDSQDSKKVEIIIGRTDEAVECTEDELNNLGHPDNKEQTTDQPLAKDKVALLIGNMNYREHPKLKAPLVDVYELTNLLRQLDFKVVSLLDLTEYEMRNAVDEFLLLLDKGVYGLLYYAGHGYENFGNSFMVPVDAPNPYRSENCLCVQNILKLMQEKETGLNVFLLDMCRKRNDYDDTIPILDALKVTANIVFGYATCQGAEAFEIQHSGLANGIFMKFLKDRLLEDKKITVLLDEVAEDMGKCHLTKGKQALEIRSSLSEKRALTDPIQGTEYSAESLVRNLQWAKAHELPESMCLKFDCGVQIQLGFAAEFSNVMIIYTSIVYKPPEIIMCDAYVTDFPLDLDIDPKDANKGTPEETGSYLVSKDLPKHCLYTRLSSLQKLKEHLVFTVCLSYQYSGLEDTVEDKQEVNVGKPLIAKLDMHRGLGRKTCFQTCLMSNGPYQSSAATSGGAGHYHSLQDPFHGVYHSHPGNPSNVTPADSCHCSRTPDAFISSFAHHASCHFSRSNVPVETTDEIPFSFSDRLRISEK

[2] = tested on: Secretion of IL6 by OCI-LY3 ABC-DLBCL cells; assay: Human IL6 Mesoscale assay (OCI-LY3); format: cell-based; settings: read-out: Human IL6 Mesoscale assay (OCI-LY3)
How it was run: (§1)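 TMD8 or OCI-LY3 ABC-DLBCL cells incubated with compound 24 h at 37° C without beta-mercaptoethanol. Secreted IL6 and IL10 in supernatant quantified by MSD electrochemiluminescence immunoassay; DMSO wells define maximum signal.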

[3] = tested on: OCI-Ly3 ABC-DLBCL cell line; assay: 4-day proliferation assay OCI-Ly3; format: cell-based; settings: Homo sapiens, read-out: Anti-proliferation: OCI-LY-3 IC50
Experimental: To assess anti-proliferative effects, MALT1 inhibitor test compounds were tested in 4-day proliferation assays using three different DLBCL cell lines.
Cells should be kept between 0.5-2.5 million cells per mL during culturing and cells should be supplemented every 2-3 days with fresh 50 μM beta-mercaptoenthanol. No beta-mercaptoethanol is used during the proliferation assay. OCI-Ly7 cells were propagated in IMDM (ThermoFisher) supplemented with 10% fetal bovine serum (HyClone), 2 mM L-glutamine (Sigma Aldrich) and 50 μg/mL Gentamycin. Cell passage numbers should not exceed 30.
10,000 TMD8, 10,000 OCI-Ly3 or 2,000 OCI-Ly7 cells were seeded in 100 μL media per well and incubated for 4 days at 37° C. and 5% CO2. Cell plating numbers were chosen based on growth curves to ensure linear cell growth. After 4 days of incubation 50 μl CellTiterGLO reagent (Promega) were added to each well and luminescence was measured on the Envision after 10 min of incubation at room temperature.

[4] = tested on: Secretion of IL10 by OCI-LY3 ABC-DLBCL cells; assay: Human IL10 Mesoscale assay (OCI-LY3); format: cell-based; settings: read-out: Human IL10 Mesoscale assay (OCI-LY3)
How it was run: as §1

[5] = OCI-LY3 cells, 24 h incubation, supernatant, MSD V-Plex
[6] = 96 h, 10,000 OCI-Ly3 cells per well, 4 days, CellTiterGLO

SMILES | IC50 [1] [µM] | IC50 [2, 5] [µM] | IC50 [3, 6] [µM] | IC50 [4, 5] [µM] | IC50 ([2]; OCI-Ly3, 24 h) [µM] | IC50 ([3]; OCI-Ly3, 96 h) [µM] | IC50 ([4]; OCI-Ly3, 24 h) [µM]
N#Cc1cc(NC(=O)c2cnn(-c3ccc(F)c(F)c3Cl)c2C(F)(F)F)cnc1-n1nccn1 [Cpd 60, 1-(2-chloro-3,4-difluorophenyl)-N-(5-cyano-6-(2H-1,2,3-triazol-2-yl)pyridin-3-yl)-5-(trifluoromethyl)-1H-pyrazole-4-carboxamide] | 0.071 | 0.178 | 0.741 | 0.151 | – | – | –
N#Cc1cc(NC(=O)c2cnn(-c3ccc(F)cc3F)c2C(F)(F)F)cnc1-n1nccn1 [Cpd 111, N-(5-cyano-6-(2H-1,2,3-triazol-2-yl)pyridin-3-yl)-1-(2,4-difluorophenyl)-5-(trifluoromethyl)-1H-pyrazole-4-carboxamide] | 0.112 | 0.071 | 1.82 | 0.063 | – | – | –
CN1CCCc2cccc(-n3ncc(C(=O)Nc4cnc(-n5nccn5)c(C#N)c4)c3C(F)(F)F)c21 [Cpd 131, N-(5-cyano-6-(2H-1,2,3-triazol-2-yl)pyridin-3-yl)-1-(1-methyl-1,2,3,4-tetrahydroquinolin-8-yl)-5-(trifluoromethyl)-1H-pyrazole-4-carboxamide] | 0.776 | – | 19.1 | – | – | – | –
Cc1cccc(F)c1-n1ncc(C(=O)Nc2cnc(-n3nccn3)c(C#N)c2)c1C(F)(F)F [Cpd 101, N-(5-cyano-6-(2H-1,2,3-triazol-2-yl)pyridin-3-yl)-1-(2-fluoro-6-methylphenyl)-5-(trifluoromethyl)-1H-pyrazole-4-carboxamide] | 0.151 | 0.166 | 0.479 | 0.12 | – | – | –
N#Cc1cc(NC(=O)c2cnn(-c3ccc(F)cc3Br)c2C(F)(F)F)cnc1-n1nccn1 [Cpd 50, 1-(2-bromo-4-fluorophenyl)-N-(5-cyano-6-(2H-1,2,3-triazol-2-yl)pyridin-3-yl)-5-(trifluoromethyl)-1H-pyrazole-4-carboxamide] | 0.054 | – | 1.07 | – | – | – | –
N#Cc1cc(NC(=O)c2cnn(-c3ccc(F)cc3Cl)c2C(F)(F)F)cnc1-n1nccn1 [Cpd 51, 1-(2-chloro-4-fluorophenyl)-N-(5-cyano-6-(2H-1,2,3-triazol-2-yl)pyridin-3-yl)-5-(trifluoromethyl)-1H-pyrazole-4-carboxamide] | 0.054 | 0.098 | 0.851 | 0.071 | – | – | –
N#Cc1cc(NC(=O)c2cnn(-c3c(F)cccc3Cl)c2C(F)(F)F)cnc1-n1nccn1 [Cpd 98, 1-(2-chloro-6-fluorophenyl)-N-(5-cyano-6-(2H-1,2,3-triazol-2-yl)pyridin-3-yl)-5-(trifluoromethyl)-1H-pyrazole-4-carboxamide] | 0.263 | 0.191 | 0.437 | 0.166 | – | – | –
Nc1nccc(-n2ncc(C(=O)Nc3cnc(-n4nccn4)c(Cl)c3)c2C(F)(F)F)c1Cl [Cpd 57, 1-(2-amino-3-chloropyridin-4-yl)-N-(5-chloro-6-(2H-1,2,3-triazol-2-yl)pyridin-3-yl)-5-(trifluoromethyl)-1H-pyrazole-4-carboxamide] | 0.107 | – | – | – | 0.162 | 1.2 | 0.117
Cc1ccc(F)cc1-n1ncc(C(=O)Nc2cnc(-n3nccn3)c(C#N)c2)c1C(F)(F)F [Cpd 103, N-(5-cyano-6-(2H-1,2,3-triazol-2-yl)pyridin-3-yl)-1-(5-fluoro-2-methylphenyl)-5-(trifluoromethyl)-1H-pyrazole-4-carboxamide] | 0.148 | – | – | – | 0.129 | 0.275 | 0.141
N#Cc1cc(NC(=O)c2cnn(-c3ccc(F)c(N)n3)c2C(F)(F)F)cnc1-n1nccn1 [Cpd 63, 1-(6-amino-5-fluoropyridin-2-yl)-N-(5-cyano-6-(2H-1,2,3-triazol-2-yl)pyridin-3-yl)-5-(trifluoromethyl)-1H-pyrazole-4-carboxamide] | 0.024 | 0.069 | 2.51 | 0.049 | – | – | –
Cc1ccccc1-n1ncc(C(=O)Nc2cnc(-n3nccn3)c(C#N)c2)c1C(F)(F)F [Cpd 55, N-(5-cyano-6-(2H-1,2,3-triazol-2-yl)pyridin-3-yl)-1-(o-tolyl)-5-(trifluoromethyl)-1H-pyrazole-4-carboxamide] | 0.062 | – | 3.39 | – | – | – | –
O=C(Nc1cnc(-n2nccn2)c(Cl)c1)c1cnn(-c2ccnc3c2OCO3)c1C(F)(F)F [Cpd 52, 1-([1,3]dioxolo[4,5-b]pyridin-7-yl)-N-(5-chloro-6-(2H-1,2,3-triazol-2-yl)pyridin-3-yl)-5-(trifluoromethyl)-1H-pyrazole-4-carboxamide] | 0.055 | 0.12 | 2.4 | 0.056 | – | – | –
N#Cc1cc(NC(=O)c2cnn(-c3ccnc(N)c3Cl)c2C(F)(F)F)cnc1-n1nccn1 [Cpd 56, 1-(2-amino-3-chloropyridin-4-yl)-N-(5-cyano-6-(2H-1,2,3-triazol-2-yl)pyridin-3-yl)-5-(trifluoromethyl)-1H-pyrazole-4-carboxamide] | 0.078 | – | – | – | 0.389 | 5.01 | 0.363
N#Cc1cc(NC(=O)c2cnn(-c3cccc4c3CCNC4)c2C(F)(F)F)cnc1-n1nccn1 [Cpd 129, N-(5-cyano-6-(2H-1,2,3-triazol-2-yl)pyridin-3-yl)-1-(1,2,3,4-tetrahydroisoquinolin-5-yl)-5-(trifluoromethyl)-1H-pyrazole-4-carboxamide] | 2.4 | – | 1.41 | – | – | – | –
Cc1cc(F)cnc1-n1ncc(C(=O)Nc2cnc(-n3nccn3)c(Cl)c2)c1C(F)(F)F [Cpd 112, N-(5-chloro-6-(2H-1,2,3-triazol-2-yl)pyridin-3-yl)-1-(5-fluoro-3-methylpyridin-2-yl)-5-(trifluoromethyl)-1H-pyrazole-4-carboxamide] | 0.457 | – | – | – | – | 0.724 | –
O=C(Nc1cnc(-n2nccn2)c(Cl)c1)c1cnn(-c2ccc(F)cc2Br)c1C(F)(F)F [Cpd 83, 1-(2-bromo-4-fluorophenyl)-N-(5-chloro-6-(2H-1,2,3-triazol-2-yl)pyridin-3-yl)-5-(trifluoromethyl)-1H-pyrazole-4-carboxamide] | 0.129 | – | 2.24 | – | – | – | –
O=C1NCc2c1cccc2-n1ncc(C(=O)Nc2cnc(-n3nccn3)c(Cl)c2)c1C(F)(F)F [Cpd 133, N-(5-chloro-6-(2H-1,2,3-triazol-2-yl)pyridin-3-yl)-1-(1-oxoisoindolin-4-yl)-5-(trifluoromethyl)-1H-pyrazole-4-carboxamide] | 0.155 | – | 5.5 | – | – | – | –
N#Cc1cc(NC(=O)c2cnn(-c3cccc(F)c3Cl)c2C(F)(F)F)cnc1-n1nccn1 [Cpd 61, 1-(2-chloro-3-fluorophenyl)-N-(5-cyano-6-(2H-1,2,3-triazol-2-yl)pyridin-3-yl)-5-(trifluoromethyl)-1H-pyrazole-4-carboxamide] | 0.078 | – | 1.86 | – | – | – | –
Nc1nc(-n2ncc(C(=O)Nc3cnc(-n4nccn4)c(Cl)c3)c2C(F)(F)F)ccc1F [Cpd 62, 1-(6-amino-5-fluoropyridin-2-yl)-N-(5-chloro-6-(2H-1,2,3-triazol-2-yl)pyridin-3-yl)-5-(trifluoromethyl)-1H-pyrazole-4-carboxamide] | 0.045 | 0.38 | 0.912 | 0.427 | – | – | –
Cc1nc(-n2ncc(C(=O)Nc3cnc(-n4nccn4)c(C#N)c3)c2C(F)(F)F)ccc1F [Cpd 160, N-(5-cyano-6-(2H-1,2,3-triazol-2-yl)pyridin-3-yl)-1-(5-fluoro-6-methylpyridin-2-yl)-5-(trifluoromethyl)-1H-pyrazole-4-carboxamide] | 0.288 | 0.646 | 0.49 | 0.457 | – | – | –
